{
  "source": "patent US7585998B2",
  "about": "(Bayer CropScience AG, priority 2003, dated 2009)",
  "assay": "log P determination by HPLC on a reverse phase column (C 18), EEC Directive 79/831 Annex V.A8",
  "type": "physicochemical",
  "conditions": "pH 2.3, 0.1% aqueous phosphoric acid and acetonitrile as eluents, linear gradient 10% to 90% acetonitrile, 43° C.",
  "protocol": "The determination of the log P values reported in the above tables and preparation examples is carried out in compliance with EEC Directive 79/831 Annex V.A8 by HPLC (High Performance Liquid Chromatography) on a reverse phase column (C 18). Temperature: 43° C. The determination is carried out in the acid region at pH 2.3 with 0.1% aqueous phosphoric acid and acetonitrile as eluents; linear gradient of 10% acetonitrile to 90% acetonitrile. Calibration is carried out with unbranched alkan-2-ones (with 3 to 16 carbon atoms) the log P values of which are known (determination of the log P values on the basis of retention times by linear interpolation between two sequential alkanones).",
  "data": [
    {"smiles": "CCOC(=O)c1sc(C)nc1C(F)F", "values": [
      {"measurement": "chromatographic logP", "value": 2.18}
    ]}
  ]
}
